Columns and labels:
Test in all cases: relative viability (nuclei count vs DMSO), 5 days (fraction); higher = more cells survive
[1] = system: NCI-H1666
Summary of the method: (§1)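 Each reported value is a median over duplicate plates. It expresses relative viability: treated-well nuclei count divided by vehicle-well nuclei count. Lung cancer cell lines in 1536-well plates were dosed by pin tool a day after seeding, alone with one drug or with a fixed anchor-drug dose plus five library-drug doses (not always all listed) in √10 steps, and nuclei were counted after 5 days.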

[2] = system: EPLC-272H
Summary of the method: as §1

[3] = system: NCI-H647
Summary of the method: as §1

[4] = system: PC-14
Summary of the method: as §1

[5] = system: NCI-H1915
Summary of the method: as §1

[6] = system: NCI-H661
Summary of the method: as §1

[7] = system: H3255
Summary of the method: as §1

[8] = system: ChaGo-K-1
Summary of the method: as §1

[9] = system: NCI-H23
Summary of the method: as §1

[10] = system: COR-L 105
Summary of the method: as §1

[11] = system: NCI-H2347
Summary of the method: as §1

[12] = system: NCI-H2405
Summary of the method: as §1

[13] = system: LCLC-97TM1
Summary of the method: as §1

[14] = system: 201T
Summary of the method: as §1

[15] = system: HCC-827
Summary of the method: as §1

[16] = system: RERF-LC-KJ
Summary of the method: as §1

[17] = system: NCI-H650
Summary of the method: as §1

[18] = system: NCI-H520
Summary of the method: as §1

[19] = system: HCC-78
Summary of the method: as §1

[20] = system: NCI-H2126
Summary of the method: as §1

[21] = system: LC-2-ad
Summary of the method: as §1

[22] = system: NCI-H2087
Summary of the method: as §1

CCN(CC)CCCCNc1ncc2cc(-c3cc(OC)cc(OC)c3)c(NC(=O)NC(C)(C)C)nc2n1 + COc1cccc2cc(-c3nc([C@H]4CC[C@H](C(=O)O)CC4)n4ncnc(N)c34)[nH]c12 [OSI-027] (partner 0.5 µM)
relative viability ([1]; first compound 0.01 µM): 0.896 | relative viability ([1]; first compound 0.03162 µM): 0.877 | relative viability ([1]; first compound 0.1 µM): 0.817 | relative viability ([1]; first compound 0.3162 µM): 1.08 | relative viability ([1]; first compound 1 µM): 0.851 | relative viability ([2]; first compound 0.01 µM): 0.272 | relative viability ([2]; first compound 0.03162 µM): 0.281 | relative viability ([2]; first compound 0.1 µM): 0.234 | relative viability ([2]; first compound 0.3162 µM): 0.28 | relative viability ([2]; first compound 1 µM): 0.301 | relative viability ([3]; first compound 0.01 µM): 0.539 | relative viability ([3]; first compound 0.03162 µM): 0.8 | relative viability ([3]; first compound 0.1 µM): 0.848 | relative viability ([3]; first compound 0.3162 µM): 0.861 | relative viability ([3]; first compound 1 µM): 0.56 | relative viability ([4]; first compound 0.01 µM): 0.838 | relative viability ([4]; first compound 0.03162 µM): 1.04 | relative viability ([4]; first compound 0.1 µM): 1.12 | relative viability ([4]; first compound 0.3162 µM): 0.974 | relative viability ([4]; first compound 1 µM): 0.91 | relative viability ([5]; first compound 0.01 µM): 0.377 | relative viability ([5]; first compound 0.03162 µM): 0.645 | relative viability ([5]; first compound 0.1 µM): 0.775 | relative viability ([5]; first compound 0.3162 µM): 0.721 | relative viability ([5]; first compound 1 µM): 0.643 | relative viability ([6]; first compound 0.01 µM): 0.784 | relative viability ([6]; first compound 0.03162 µM): 0.727 | relative viability ([6]; first compound 0.1 µM): 0.779 | relative viability ([6]; first compound 0.3162 µM): 0.743 | relative viability ([6]; first compound 1 µM): 0.48 | relative viability ([7]; first compound 0.01 µM): 0.524 | relative viability ([7]; first compound 0.03162 µM): 0.547 | relative viability ([7]; first compound 0.1 µM): 0.698 | relative viability ([7]; first compound 0.3162 µM): 0.448 | relative viability ([7]; first compound 1 µM): 0.538 | relative viability ([8]; first compound 0.01 µM): 0.618 | relative viability ([8]; first compound 0.03162 µM): 0.671 | relative viability ([8]; first compound 0.1 µM): 0.619 | relative viability ([8]; first compound 0.3162 µM): 0.559 | relative viability ([8]; first compound 1 µM): 0.513 | relative viability ([9]; first compound 0.01 µM): 0.566 | relative viability ([9]; first compound 0.03162 µM): 0.679 | relative viability ([9]; first compound 0.1 µM): 0.738 | relative viability ([9]; first compound 0.3162 µM): 0.731 | relative viability ([9]; first compound 1 µM): 0.623 | relative viability ([10]; first compound 0.01 µM): 0.704 | relative viability ([10]; first compound 0.03162 µM): 0.591 | relative viability ([10]; first compound 0.1 µM): 0.749 | relative viability ([10]; first compound 0.3162 µM): 0.826 | relative viability ([10]; first compound 1 µM): 0.417 | relative viability ([11]; first compound 0.01 µM): 0.419 | relative viability ([11]; first compound 0.03162 µM): 0.38 | relative viability ([11]; first compound 0.1 µM): 0.408 | relative viability ([11]; first compound 0.3162 µM): 0.381 | relative viability ([11]; first compound 1 µM): 0.358 | relative viability ([12]; first compound 0.01 µM): 0.647 | relative viability ([12]; first compound 0.03162 µM): 0.659 | relative viability ([12]; first compound 0.1 µM): 0.585 | relative viability ([12]; first compound 0.3162 µM): 0.602 | relative viability ([12]; first compound 1 µM): 0.691 | relative viability ([13]; first compound 0.01 µM): 0.553 | relative viability ([13]; first compound 0.03162 µM): 0.518 | relative viability ([13]; first compound 0.1 µM): 0.513 | relative viability ([13]; first compound 0.3162 µM): 0.619 | relative viability ([13]; first compound 1 µM): 0.367 | relative viability ([14]; first compound 0.01 µM): 0.615 | relative viability ([14]; first compound 0.03162 µM): 0.658 | relative viability ([14]; first compound 0.1 µM): 0.927 | relative viability ([14]; first compound 0.3162 µM): 0.798 | relative viability ([14]; first compound 1 µM): 0.607 | relative viability ([15]; first compound 0.01 µM): 0.809 | relative viability ([15]; first compound 0.03162 µM): 0.761 | relative viability ([15]; first compound 0.1 µM): 0.836 | relative viability ([15]; first compound 0.3162 µM): 0.95 | relative viability ([15]; first compound 1 µM): 0.655 | relative viability ([16]; first compound 0.01 µM): 0.549 | relative viability ([16]; first compound 0.03162 µM): 0.678 | relative viability ([16]; first compound 0.1 µM): 0.536 | relative viability ([16]; first compound 0.3162 µM): 0.675 | relative viability ([16]; first compound 1 µM): 0.515 | relative viability ([17]; first compound 0.01 µM): 0.46 | relative viability ([17]; first compound 0.03162 µM): 0.551 | relative viability ([17]; first compound 0.1 µM): 0.589 | relative viability ([17]; first compound 0.3162 µM): 0.605 | relative viability ([17]; first compound 1 µM): 0.507 | relative viability ([18]; first compound 0.01 µM): 0.251 | relative viability ([18]; first compound 0.03162 µM): 0.228 | relative viability ([18]; first compound 0.1 µM): 0.259 | relative viability ([18]; first compound 0.3162 µM): 0.192 | relative viability ([18]; first compound 1 µM): 0.155 | relative viability ([19]; first compound 0.01 µM): 0.36 | relative viability ([19]; first compound 0.03162 µM): 0.381 | relative viability ([19]; first compound 0.1 µM): 0.468 | relative viability ([19]; first compound 0.3162 µM): 0.349 | relative viability ([19]; first compound 1 µM): 0.357 | relative viability ([20]; first compound 0.01 µM): 0.583 | relative viability ([20]; first compound 0.03162 µM): 0.768 | relative viability ([20]; first compound 0.1 µM): 0.704 | relative viability ([20]; first compound 0.3162 µM): 0.756 | relative viability ([20]; first compound 1 µM): 0.707 | relative viability ([21]; first compound 0.01 µM): 0.776 | relative viability ([21]; first compound 0.03162 µM): 1.05 | relative viability ([21]; first compound 0.1 µM): 0.909 | relative viability ([21]; first compound 0.3162 µM): 0.854 | relative viability ([21]; first compound 1 µM): 0.75 | relative viability ([22]; first compound 0.01 µM): 0.618 | relative viability ([22]; first compound 0.03162 µM): 0.5 | relative viability ([22]; first compound 0.1 µM): 0.733 | relative viability ([22]; first compound 0.3162 µM): 0.636 | relative viability ([22]; first compound 1 µM): 0.6

Source: the supplement of paper PMC10307832
